Results taken from patent US11773113B2, “Crystal forms of crisaborole in free form and preparation method and use thereof” (Anacor Pharmaceuticals, Inc., priority 2016, dated 2023).
≈ marks a conversion by molar mass, not a printed value.

Assays:
Format in all cases: physicochemical
[1] = Study of moisture absorption, dynamic vapor sorption (DVS) test; conditions: for Moisture absorption characteristic according to Chinese Pharmacopoeia (2015): 25° C.±1° C.; for Moisture absorption characteristic according to Chinese Pharmacopoeia (2015) / Weight increase of 80% relative humidity: 80% relative humidity; for Weight increase of 80% relative humidity / Weight increase of 95% relative humidity: DVS, 25° C.
Experimental: The dynamic vapor sorption (DVS) pattern as described in the invention was collected on an intrinsic dynamic vapor sorption meter as produced by Surface Measurement Systems Ltd. The dynamic vapor sorption method has the following parameters: Temperature: 25° C., Loading gas, flowing speed: N2, 200 ml/min, Variation in mass per time: 0.002%/minute, Relative humidity range: 0% RH-95% RH. […] The obtained results were shown in Table 13: With regard to the descriptions for the moisture absorption characteristic and the definition for the increased weight of moisture absorption (Guidelines for the Moisture Absorption Tests of Drugs in the Appendix of Chinese Pharmacopoeia (2015), Experimental conditions: 25° C.±1° C., 80% relative humidity): […]

[2] = Study of dynamic solubility (saturated solution, HPLC); conditions: for Solubility assessment: FaSSIF, FeSSIF, SGF and water; for solubility at 1 h / solubility at 24 h / solubility at 4 h: thermodynamic from solid
Text: The high performance liquid chromatography (HPLC) data were collected in an Agilent 1260, and the used detector was a diode array detector (DAD). The HPLC method as described in the invention has the following parameters: […]

[3] = Study of long-term and acceleration stabilities (XRPD); conditions: both 25° C./60% RH and 40° C./75% RH, 3 months
[4] = Study of particle size distribution (PSD, laser particle size analytic meter); conditions: for Particle size distribution (PSD pattern): from PSD patterns FIG. 26-28; for D10 / D50 (median size) / D90: volume distribution; for D10 / D50 (median size) / D90 / MV (average particle size as calculated in terms of the volume): dispersion medium Isopar G; for MV (average particle size as calculated in terms of the volume): wet process
Experimental: The particle size distribution (PSD) results as described in the invention were collected on a S3500-type laser particle size analytic meter as produced by Microtrac Company. The Microtrac S3500 is equipped with a SDC (Sample Delivery Controller) feeding system. The test was conducted via a wet process, and the dispersion medium as used in the test was Isopar G. The laser particle size analytic meter has the following parameters: [table]

[5] = Polarizing microscope (PLM) patterns; conditions: from PLM patterns FIG. 29-31
[6] = Study of mechanical stability (ground by hand for 5 minutes, XRPD); conditions: ground for 5 minutes by hand in a mortar

Moisture absorption characteristic according to Chinese Pharmacopoeia (2015) [1] | Weight increase of 80% relative humidity [1] | Weight increase of 95% relative humidity [1] | Solubility ([2]; FaSSIF (pH = 6.5), 1 h) | Solubility ([2]; FaSSIF (pH = 6.5), 4 h) | Solubility ([2]; FaSSIF (pH = 6.5), 24 h) | Solubility assessment [2] | Solubility ([2]; FeSSIF (pH = 5.0), 1 h) | Solubility ([2]; FeSSIF (pH = 5.0), 4 h) | Solubility ([2]; FeSSIF (pH = 5.0), 24 h) | Solubility ([2]; H2O, 4 h) | Solubility ([2]; H2O, 24 h) | Solubility ([2]; SGF (pH = 1.8), 1 h) | Solubility ([2]; SGF (pH = 1.8), 4 h) | Solubility ([2]; SGF (pH = 1.8), 24 h) | Stability of the crystal form on storage [3] | D10 [4] | D50 (median size) [4] | D90 [4] | MV (average particle size as calculated in terms of the volume) [4] | Compound | further results
almost have no moisture absorption | 0.13% | 0.32% | 11 µg/mL (≈ 43.8 µM) | 5 µg/mL (≈ 19.9 µM) | 8 µg/mL (≈ 31.9 µM) | in line with medicinal requirements | 18 µg/mL (≈ 71.7 µM) | 49 µg/mL (≈ 195 µM) | 55 µg/mL (≈ 219 µM) | 1 µg/mL (≈ 3.98 µM) | 6 µg/mL (≈ 23.9 µM) | 10 µg/mL (≈ 39.8 µM) | 26 µg/mL (≈ 104 µM) | 15 µg/mL (≈ 59.7 µM) | maintain their stability | 8.24 μm | 20.46 μm | 40.42 μm | 23.13 μm | N#Cc1ccc(Oc2ccc3c(c2)COB3O)cc1 [Crystal form II, 4-[(1,3-dihydro-1-hydroxyl-2,1-benzoxaborolane-5-yl)oxy]benzonitrile] | Solubility ([2]; H2O, 1 h): 3 µg/mL (≈ 11.9 µM); Particle size distribution (PSD pattern) [4]: homogeneous; Particle sizes of the particles (PLM pattern) [5]: homogeneous
almost have no moisture absorption | 0.09% | 0.15% | 8 µg/mL (≈ 31.9 µM) | 10 µg/mL (≈ 39.8 µM) | 12 µg/mL (≈ 47.8 µM) | in line with medicinal requirements | 25 µg/mL (≈ 99.6 µM) | 67 µg/mL (≈ 267 µM) | 74 µg/mL (≈ 295 µM) | 4 µg/mL (≈ 15.9 µM) | 6 µg/mL (≈ 23.9 µM) | 33 µg/mL (≈ 131 µM) | 34 µg/mL (≈ 135 µM) | 40 µg/mL (≈ 159 µM) | maintain their stability | 21.68 μm | 163.0 μm | 903.1 μm | 289.0 μm | N#Cc1ccc(Oc2ccc3c(c2)COB3O)cc1 [Crystal form III, 4-[(1,3-dihydro-1-hydroxyl-2,1-benzoxaborolane-5-yl)oxy]benzonitrile] | Solubility ([2]; H2O, 1 h): 5 µg/mL (≈ 19.9 µM)
almost have no moisture absorption | 0.14% | 0.32% | – | 7 µg/mL (≈ 27.9 µM) | – | in line with medicinal requirements | 44 µg/mL (≈ 175 µM) | – | – | 5 µg/mL (≈ 19.9 µM) | – | 11 µg/mL (≈ 43.8 µM) | – | 38 µg/mL (≈ 151 µM) | maintain their stability | 1.69 μm | 5.52 μm | 20.35 μm | 9.62 μm | N#Cc1ccc(Oc2ccc3c(c2)COB3O)cc1 [Crystal form I, 4-[(1,3-dihydro-1-hydroxyl-2,1-benzoxaborolane-5-yl)oxy]benzonitrile] | Final crystal form [6]: Crystal form I; Final crystal form ([6]; listed as crystal form I): not changed; solubility at 1 h ([2]; fasted state simulated intestinal fluid (FaSSIF), pH 6.5, fassif, FaSSIF (pH = 6.5), 1 h): 6 µg/mL (≈ 23.9 µM); solubility at 24 h ([2]; fasted state simulated intestinal fluid (FaSSIF), pH 6.5, fassif, FaSSIF (pH = 6.5), 24 h): 12 µg/mL (≈ 47.8 µM); solubility at 4 h ([2]; fed state simulated intestinal fluid (FeSSIF), pH 5, fessif, FeSSIF (pH = 5.0), 4 h): 59 µg/mL (≈ 235 µM); solubility at 24 h ([2]; fed state simulated intestinal fluid (FeSSIF), pH 5, fessif, FeSSIF (pH = 5.0), 24 h): 59 µg/mL (≈ 235 µM); solubility at 4 h ([2]; simulated gastric fluid (SGF), pH 1.8, simulated gastric fluid, SGF (pH = 1.8), 4 h): 37 µg/mL (≈ 147 µM); solubility at 1 h ([2]; water, H2O, 1 h): 4 µg/mL (≈ 15.9 µM); solubility at 24 h ([2]; water, H2O, 24 h): 6 µg/mL (≈ 23.9 µM); Particle size distribution (PSD pattern) [4]: homogeneous; Particle sizes of the particles (PLM pattern) [5]: homogeneous
– | 1.53% | 4.90% | 9 µg/mL (≈ 35.8 µM) | 17 µg/mL (≈ 67.7 µM) | 13 µg/mL (≈ 51.8 µM) | in line with medicinal requirements | 62 µg/mL (≈ 247 µM) | 61 µg/mL (≈ 243 µM) | 56 µg/mL (≈ 223 µM) | 6 µg/mL (≈ 23.9 µM) | 4 µg/mL (≈ 15.9 µM) | 31 µg/mL (≈ 123 µM) | 27 µg/mL (≈ 108 µM) | 26 µg/mL (≈ 104 µM) | – | 13.43 μm | 33.68 μm | 99.36 μm | 52.95 μm | N#Cc1ccc(Oc2ccc3c(c2)COB3O)cc1 [Crystal form IV, 4-[(1,3-dihydro-1-hydroxyl-2,1-benzoxaborolane-5-yl)oxy]benzonitrile] | Moisture absorption characteristic according to Chinese Pharmacopoeia (2015) ([1]; listed as crystal IV): slight moisture absorption; Final crystal form [6]: Crystal form IV; Final crystal form ([6]; listed as crystal form IV): not changed; Particle size distribution (PSD pattern) [4]: homogeneous; Particle sizes of the particles (PLM pattern) [5]: homogeneous
